Results as given in paper PMC6780063 (Marine Drugs, 2019).
Residues, ends and D or L forms follow the SMILES beside them.

Target: α1β1γδ nAChR (Homo sapiens, UniProt P02708+P07510+P11230+Q07001)
Assay: cell-based
Assay type: cell-based

α1β1γδ nAChR, sequence (P02708 21-457 limits assumed): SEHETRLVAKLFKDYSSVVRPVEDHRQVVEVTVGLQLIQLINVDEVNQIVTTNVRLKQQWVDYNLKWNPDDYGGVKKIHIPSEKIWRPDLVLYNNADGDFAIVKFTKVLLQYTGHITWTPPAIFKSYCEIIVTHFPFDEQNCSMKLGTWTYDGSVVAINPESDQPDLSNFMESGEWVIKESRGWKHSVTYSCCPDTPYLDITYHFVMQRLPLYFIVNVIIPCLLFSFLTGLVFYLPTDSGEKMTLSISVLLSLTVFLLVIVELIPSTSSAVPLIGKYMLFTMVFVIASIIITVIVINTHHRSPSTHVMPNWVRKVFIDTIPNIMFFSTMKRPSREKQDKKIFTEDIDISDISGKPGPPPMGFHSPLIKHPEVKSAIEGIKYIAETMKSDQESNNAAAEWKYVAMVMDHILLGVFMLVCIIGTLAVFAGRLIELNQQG
α1β1γδ nAChR, sequence (P11230 24-501 partner limits assumed): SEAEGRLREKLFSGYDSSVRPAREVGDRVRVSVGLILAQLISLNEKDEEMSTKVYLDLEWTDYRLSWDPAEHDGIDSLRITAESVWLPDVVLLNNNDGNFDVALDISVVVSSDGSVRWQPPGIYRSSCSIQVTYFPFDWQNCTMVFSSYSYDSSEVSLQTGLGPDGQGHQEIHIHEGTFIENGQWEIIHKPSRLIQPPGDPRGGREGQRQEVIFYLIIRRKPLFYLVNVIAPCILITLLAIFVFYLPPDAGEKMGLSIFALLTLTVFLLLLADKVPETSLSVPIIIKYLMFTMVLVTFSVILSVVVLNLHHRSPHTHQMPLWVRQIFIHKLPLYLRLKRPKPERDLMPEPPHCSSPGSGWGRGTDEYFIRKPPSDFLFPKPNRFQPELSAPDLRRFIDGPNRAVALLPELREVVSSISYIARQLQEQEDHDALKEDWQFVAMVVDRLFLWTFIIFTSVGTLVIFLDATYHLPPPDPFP
α1β1γδ nAChR, sequence (P07510 23-517 limits assumed): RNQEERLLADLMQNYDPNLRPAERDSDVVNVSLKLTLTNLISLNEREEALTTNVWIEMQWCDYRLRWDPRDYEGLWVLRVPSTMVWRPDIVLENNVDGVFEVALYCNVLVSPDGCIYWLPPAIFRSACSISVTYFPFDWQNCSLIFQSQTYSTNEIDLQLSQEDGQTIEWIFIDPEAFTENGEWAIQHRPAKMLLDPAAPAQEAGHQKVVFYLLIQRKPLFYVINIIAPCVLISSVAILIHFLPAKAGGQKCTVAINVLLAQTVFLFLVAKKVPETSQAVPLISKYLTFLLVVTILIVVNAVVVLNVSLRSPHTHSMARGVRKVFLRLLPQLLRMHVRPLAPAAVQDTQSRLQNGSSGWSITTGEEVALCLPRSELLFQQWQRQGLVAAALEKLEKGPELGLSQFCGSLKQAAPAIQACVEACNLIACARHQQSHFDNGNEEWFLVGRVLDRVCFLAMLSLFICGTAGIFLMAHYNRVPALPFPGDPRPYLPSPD
α1β1γδ nAChR, sequence (Q07001 22-517 limits assumed): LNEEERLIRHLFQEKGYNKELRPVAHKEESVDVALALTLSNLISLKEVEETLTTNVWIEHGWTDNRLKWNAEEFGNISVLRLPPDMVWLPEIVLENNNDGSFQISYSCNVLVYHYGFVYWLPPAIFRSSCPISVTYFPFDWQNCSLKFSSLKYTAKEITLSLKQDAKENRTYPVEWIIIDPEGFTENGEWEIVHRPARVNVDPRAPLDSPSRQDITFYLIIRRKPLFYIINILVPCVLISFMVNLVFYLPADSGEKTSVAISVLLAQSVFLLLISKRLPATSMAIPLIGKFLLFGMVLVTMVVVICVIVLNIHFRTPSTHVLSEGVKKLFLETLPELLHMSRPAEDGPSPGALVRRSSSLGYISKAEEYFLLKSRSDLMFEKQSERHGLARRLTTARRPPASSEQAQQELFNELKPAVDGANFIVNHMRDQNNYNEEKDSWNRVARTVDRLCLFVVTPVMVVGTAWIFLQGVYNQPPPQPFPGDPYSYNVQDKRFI

CSCC[C@@H]1NC(=O)[C@@H]2CSSC[C@H](NC(=O)[C@H](CCSC)NC(=O)[C@@H](N)CC(=O)O)C(=O)N[C@@H](CSSC[C@@H](C(N)=O)NC(=O)[C@H](CC(N)=O)NC(=O)[C@H](Cc3ccccc3)NC(=O)[C@H](Cc3c[nH]cn3)NC(=O)[C@H](CC(N)=O)NC1=O)C(=O)N[C@@H](Cc1c[nH]cn1)C(=O)N1CCC[C@H]1C(=O)N[C@@H](C)C(=O)N2 [MilIA] (HELM PEPTIDE1{D.M.C.C.H.P.A.C.M.N.H.F.N.C.[am]}$PEPTIDE1,PEPTIDE1,3:R3-8:R3|PEPTIDE1,PEPTIDE1,4:R3-14:R3$$$V2.0)
inhibition of the ACh-evoked current amplitude, α1β1γδ: 20% | IC50 (SEM): 13.1 µM
